Tests used:
Assay type in all cases: in vivo, Swiss-Webster mice
monocytes = assay: Monocytes by complete blood count on day 8, dosing day 1, 3, 5; settings: mice, oral gavage, measured on day 8
neutrophils [1] = assay: Neutrophils by complete blood count on day 8, dosing day 1, 3, 5; settings: mice, oral gavage, measured on day 8
[2] = test system: total white blood cell (WBC); assay: Total white blood cells by complete blood count on day 8, dosing day 1, 3, 5; settings: Mus musculus, 192 h, mice, oral gavage, measured on day 8, read-out: Total WBC % Increase Over Control; for change in vivo at 200 mg/kg: 200 mg/kg on day 1, day 3 and day 5; for change in vivo at 100 mg/kg: 100 mg/kg on day 1, day 3 and day 5; for change in vivo at 60 mg/kg: 60 mg/kg on day 1, day 3 and day 5
Procedure, shortened: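 Male Swiss-Webster mice received test compound by oral gavage with a ball-tipped gavage needle on day 1, day 3 and day 5. On day 8, 200 μl of blood was collected and total white blood cell levels were determined by complete blood count on a CellDyn cell analyzer (Abbott Laboratories), expressed as percent change relative to control.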

lymphocytes = assay: Lymphocytes by complete blood count on day 8, dosing day 1, 3, 5; settings: mice, oral gavage, measured on day 8; for change in vivo at 200 mg/kg / change in vivo at 100 mg/kg / change in vivo at 60 mg/kg: Mus musculus, Lymphocyte, 192 h, read-out: Lymphocytes % Increase Over Control
Procedure, shortened: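 Male Swiss-Webster mice received the compounds by oral gavage through a ball-tipped gavage needle on days 1, 3 and 5. On day 8, 200 μl blood samples were drawn and lymphocyte counts were obtained by complete blood count on a CellDyn cell analyzer (Abbott Laboratories). The change was expressed as percent increase relative to control animals.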

neutrophils [3] = assay: Neutrophils by complete blood count on day 8, dosing day 1, 3, 5; settings: Mus musculus, Neutrophil, 192 h, mice, oral gavage, measured on day 8, read-out: Neutrophils % Increase Over Control; for change in vivo at 200 mg/kg: 200 mg/kg on day 1, day 3 and day 5; for change in vivo at 100 mg/kg: 100 mg/kg on day 1, day 3 and day 5; for change in vivo at 60 mg/kg: 60 mg/kg on day 1, day 3 and day 5
Description: To examine the effect of compounds and methods of the present invention on increasing white blood cells, the following studies were performed. In one series of experiments, male Swiss-Webster mice were administered various compounds of the present invention via oral gavage using a ball-tipped gavage needle. […] Animals were dosed once daily for 3 or 4 days. Six hours after the final dosing, 200 μl blood samples were collected and total white blood cell, neutrophil, and lymphocyte levels were measured by complete blood count (CBC) using a CellDyn cell analyzer (Abbott Laboratories).
In another series of experiments, male Swiss-Webster mice were administered various compounds (see Table 7 and Table 8) of the present invention via oral gavage using a ball-tipped gavage needle. […] Total WBC, neutrophil, lymphocyte, and monocyte levels were measured in mice as described above on day 8 following administration of compound on day 1, day 3, and day 5.

[4] = test system: total white blood cell (WBC); assay: Total white blood cells by complete blood count on day 8, dosing day 1, 3, 5; settings: mice, oral gavage, measured on day 8
[5] = Mus musculus, Monocyte, 192 h, 200 mg/kg on day 1, day 3 and day 5, read-out: Monocytes % Increase Over Control
[6] = 200 mg/kg on day 1, day 3 and day 5
[7] = 100 mg/kg on day 1, day 3 and day 5
[8] = 60 mg/kg on day 1, day 3 and day 5

`N#Cc1nc(C(=O)NCC(=O)O)c(O)c2c(Cl)c(Cl)n(Cc3ccccc3)c12` [Compound Q, [(1-Benzyl-2,3-dichloro-7-cyano-4-hydroxy-1H-pyrrolo[2,3-c]pyridine-5-carbonyl)-amino]-acetic acid] was tested, and the change in vivo at 200 mg/kg (monocytes; [5]) was 14%, the Monocytes (monocytes; [6]) was 0.1 10^3 cells/μl and the Neutrophils (neutrophils [1]; [6]) was 2.5 10^3 cells/μl. For the same compound, the change in vivo at 200 mg/kg [2] was 475%, the change in vivo at 200 mg/kg (lymphocytes; [6]) was 522% and the Lymphocytes (lymphocytes; [6]) was 36.0 10^3 cells/μl. The change in vivo at 200 mg/kg (neutrophils [3]) was 233% and the “Total WBC” value [4, 6] was 38.7 10^3 cells/μl.
With `N#Cc1nc(C(=O)NCC(=O)O)c(O)c2ccn(Cc3ccc4ccccc4c3)c12` [Compound R, [(7-Cyano-4-hydroxy-1-naphthalen-2-ylmethyl-1H-pyrrolo[2,3-c]pyridine-5-carbonyl)-amino]-acetic acid] the change in vivo at 100 mg/kg (monocytes; Mus musculus, Monocyte, 192 h, 100 mg/kg on day 1, day 3 and day 5, read-out: Monocytes % Increase Over Control) was 205%, the Monocytes (monocytes; [7]) was 0.3 10^3 cells/μl and the Neutrophils (neutrophils [1]; [7]) was 1.3 10^3 cells/μl. The change in vivo at 100 mg/kg [2] was 290%, the change in vivo at 100 mg/kg (lymphocytes; [7]) was 330% and the Lymphocytes (lymphocytes; [7]) was 21.4 10^3 cells/μl. The change in vivo at 100 mg/kg (neutrophils [3]) was 71% and the “Total WBC” value [4, 7] was 23.0 10^3 cells/μl.
`O=C(O)CNC(=O)c1ncc2cc(Br)ccc2c1O` [Compound T, [(7-Bromo-4-hydroxy-isoquinoline-3-carbonyl)-amino]-acetic acid] was tested, and the Monocytes (monocytes; [8]) was 0.0 10^3 cells/μl, the Neutrophils (neutrophils [1]; [8]) was 1.0 10^3 cells/μl and the change in vivo at 60 mg/kg [2] was 17%. The change in vivo at 60 mg/kg (lymphocytes; [8]) was 13%, the Lymphocytes (lymphocytes; [8]) was 6.2 10^3 cells/μl and the change in vivo at 60 mg/kg (neutrophils [3]) was 40%. The “Total WBC” value [4, 8] was 7.3 10^3 cells/μl.
For `O=C(O)CNC(=O)c1ncc2cc(Oc3ccc(F)c(F)c3)ccc2c1O` [Compound V, {[7-(3,4-Difluoro-phenoxy)-4-hydroxy-isoquinoline-3-carbonyl]-amino}-acetic acid], the Monocytes (monocytes; [7]) was 0.1 10^3 cells/μl, the Neutrophils (neutrophils [1]; [7]) was 0.8 10^3 cells/μl and the change in vivo at 100 mg/kg [2] was 145%. The change in vivo at 100 mg/kg (lymphocytes; [7]) was 146%, the Lymphocytes (lymphocytes; [7]) was 6.1 10^3 cells/μl and the change in vivo at 100 mg/kg (neutrophils [3]) was 132%. For the same compound, the “Total WBC” value [4, 7] was 7.1 10^3 cells/μl.
`Cc1nc(C(=O)NCC(=O)O)c(O)c2ccc(Cl)cc12` [Compound Y, [(7-Chloro-4-hydroxy-1-methyl-isoquinoline-3-carbonyl)-amino]-acetic acid] was tested, and the change in vivo at 200 mg/kg (monocytes; [5]) was 700%, the Monocytes (monocytes; [6]) was 0.2 10^3 cells/μl and the Neutrophils (neutrophils [1]; [6]) was 1.9 10^3 cells/μl. For the same compound, the change in vivo at 200 mg/kg [2] was 34%, the change in vivo at 200 mg/kg (lymphocytes; [6]) was 17% and the Lymphocytes (lymphocytes; [6]) was 7.6 10^3 cells/μl. The change in vivo at 200 mg/kg (neutrophils [3]) was 200% and the “Total WBC” value [4, 6] was 9.8 10^3 cells/μl.
`N#Cc1nc(C(=O)NCC(=O)O)c(O)c2ccc(Oc3ccccc3)cc12` [Compound Z, [(1-Cyano-4-hydroxy-7-phenoxy-isoquinoline-3-carbonyl)-amino]-acetic acid] was tested, and the change in vivo at 60 mg/kg (monocytes; Mus musculus, Monocyte, 192 h, 60 mg/kg on day 1, day 3 and day 5, read-out: Monocytes % Increase Over Control) was 200%, the Monocytes (monocytes; [8]) was 0.1 10^3 cells/μl and the Neutrophils (neutrophils [1]; [8]) was 1.1 10^3 cells/μl. For the same compound, the change in vivo at 60 mg/kg [2] was 6%, the change in vivo at 60 mg/kg (lymphocytes; [8]) was 0% and the Lymphocytes (lymphocytes; [8]) was 7.1 10^3 cells/μl. The change in vivo at 60 mg/kg (neutrophils [3]) was 80% and the “Total WBC” value [4, 8] was 8.3 10^3 cells/μl.
